pIC50: −log10 of the molar value.

The source of these data is patent US20090264415A2 (priority 2004, published 2009).

The first assay concerns peripheral blood mononuclear cells (PBMC) stimulated with allogeneic PBMC or EBV-transformed human B cells (RPMI1788). The experiment in a line: Mixed lymphocyte reaction (MLR) assay. The format is cell-based. Conditions: 50% suppression of the MLR, [3H]-thymidine incorporation; read-out: MLR. The essentials:
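Responder PBMC co-cultured in triplicate with 30 Gy-irradiated allogeneic PBMC or RPMI1788 B cells plus compound (DMSO stock 10 mM, diluted in medium). After 5 days at 37° C, 1 μCi [3H]-thymidine added for 16 h more; incorporated cpm counted and proliferation inhibition calculated.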
On the technique in general: Incorporation of labelled thymidine or its analogues reports DNA synthesis.
On to `COc1ccc(-c2ccc3nc(Nc4ccc(C)cc4)nc(N4CCN(C(=O)Nc5cccc(C)c5)CC4)c3n2)cc1OC` [Example 91, 2-(p-tolylamino)-4-[(N-3-methylphenylcarbamoyl)-piperazin-1-yl]-6-(3,4-dimethoxy-phenyl)-pyrido[3,2-d]pyrimidine], for which the pIC50 is 6.10. On the same count and under the same terms, as for `COc1ccc(-c2ccc3ncnc(N4CCN(C(=O)Nc5ccc(F)cc5)CC4)c3n2)cc1OC` [Example 111, 4-[(N-4-fluorophenylcarbamoyl)-piperazin-1-yl]-6-(3,4-dimethoxyphenyl)-pyrido[3,2-d]pyrimidine], the figure is 7.52; as for `COc1cc(-c2ccc3nc(N)nc(N4CCOCC4)c3n2)ccc1OC1CCCC1` [Example 98, 2-amino-4-(N-morpholino)-6-(4-cyclopentyloxy-3-methoxyphenyl)-pyrido[3,2-d]pyrimidine], 5.12.

Still in this assay, the particulars now being: Homo sapiens, RPMI-1788; MLR assay of example 319; read-out: MLR IC50.
As for `CS(=O)(=O)Nc1cccc(-c2ccc3nc(N)nc(N4CCN(C(=O)COc5ccc(Cl)cc5)CC4)c3n2)c1` [Example 435, 2-amino-4-[4-(4-chlorophenoxyacetyl)piperazin-1-yl]-6-[N-3-(methanesulfonamidophenyl)]-pyrido-[3,2-d]pyrimidine], the pIC50 was 8.22.

For `COc1ccc(-c2ccc3nc(N)nc(N4CCN(C(=O)COc5ccc(Cl)cc5)CC4)c3n2)cc1Cl` [Example 517], the pIC50 was 7.92. Same read-out and setting: the result for `CC(C)(C)OC(=O)N1CCN(c2nc(Cl)nc3ccc(-c4ccc(F)cc4)nc23)CC1` [Example 566, 2-chloro-6-(4-fluorophenyl)-4-(4-Boc-piperazino)pyrido[3,2-d]pyrimidine] reads < 5.00; that for `Cc1cccc(NC(=O)N2CCN(c3nc(N)nc4ccc(-c5ccc(C(F)(F)F)cc5)nc34)CC2)c1` [Example 548, 2-amino-4-[(3-methylphenylcarbamoyl)-piperazin-1-yl]-6-(4-trifluoromethylphenyl)-pyrido[3,2-d]pyrimidine], 6.77. With `Nc1nc(N2CCN(C(=O)COc3ccc(Cl)cc3)CC2)c2nc(-c3ccc(CO)cc3)ccc2n1` [Example 441, 2-amino-4-[4-(4-chlorophenoxyacetyl)piperazin-1-yl]-6-[4-(hydroxymethyl)phenyl]pyrido-[3,2-d]pyrimidine], the pIC50 was 8.10. Still for that read-out and setting: as for `Nc1nc(N2CCN(C(=O)COc3ccc(Cl)cc3)CC2)c2nc(-c3cccc(Cl)c3)ccc2n1` [Example 406, 2-amino-4-[4-(4-chlorophenoxyacetyl)piperazin-1-yl]-6-(3-chlorophenyl)pyrido-[3,2-d]pyrimidine], the figure is 7.15; as for `C[C@@H]1CN(C(=O)OC(C)(C)C)CCN1c1nc(N)nc2ccc(-c3ccc(F)cc3)nc12` [Example 481, (R)-4-[2-amino-6-(4-fluorophenyl)-pyrido[3,2-d]pyrimidin-4-yl]-3-methylpiperazine-1-carboxylic acid tert-butyl ester], < 5.00; as for `CCCCNC(=O)N1CCN(c2nc(N)nc3ccc(-c4ccc(F)cc4)nc23)CC1` [Example 451, 2-amino-4-[4-(N-butylcarbamoyl)-piperazin-1-yl]-6-(4-fluorophenyl)-pyrido[3,2-d]pyrimidine], 6.70. The same measure, in the same setting: as for `Nc1nc(N2CCN(C(=O)COc3ccc(Cl)cc3)CC2)c2nc(-c3cc(Cl)ccc3Cl)ccc2n1` [Example 429, 2-amino-4-[4-(4-chlorophenoxyacetyl)piperazin-1-yl]-6-(2,5-dichlorophenyl)-pyrido-[3,2-d]pyrimidine], the figure is 6.30; as for `CC(C)(C)OC(=O)N1CCCC(Nc2nc(N)nc3ccc(-c4ccc(F)cc4)nc23)C1` (stereo not drawn) [Example 457, 2-amino-4-[1-(tert-butoxycarbonyl)piperid-3-ylamino]-6-(4-fluorophenyl)-pyrido[3,2-d]pyrimidine], 5.18; as for `Cc1cccc(OCC(=O)N2CCN(c3nc(N)nc4ccc(-c5ccc(F)cc5)nc34)CC2)c1` [Example 384, 2-amino-4-[4-(3-methylphenoxyacetyl)piperazin-1-yl]-6-(4-fluorophenyl)-pyrido[3,2-d]pyrimidine], 7.30.

Consider `Nc1nc(N2CCN(C(=O)CNC(=O)c3ccc(Cl)cc3)CC2)c2nc(-c3ccc(F)cc3)ccc2n1` [Example 476, N-(2-{4-[2-amino-6-(4-fluorophenyl)-pyrido[3,2-d]pyrimidin-4-yl]-piperazin-1-yl}-2-oxoethyl)-4-chlorobenzamide], for which the pIC50 is 7.22. The same measure, in the same setting: as for `CC(C)(C)OC(=O)NC(Cc1ccc(Cl)cc1)C(=O)N1CCN(c2nc(N)nc3ccc(-c4ccc(F)cc4)nc23)CC1` (stereo in doubt) [Example 477, (S)-[2-{4-[2-amino-6-(4-fluorophenyl)-pyrido[3,2-d]pyrimidin-4-yl]-piperazin-1-yl}-1-(4-chlorobenzyl)-2-oxoethyl]-carbamic acid tert-butyl ester], the figure is 5.31; as for `COc1c(C)cc(-c2ccc3nc(N)nc(N4CCN(C(=O)COc5ccc(Cl)cc5)CC4)c3n2)cc1C` [Example 502, 2-amino-4-[N-(4-chlorophenoxyacetyl)-piperazin-1-yl]-6-(3,5-dimethyl-4-methoxyphenyl)-pyrido(3,2-d)pyrimidine], 7.11; as for `CC(C)N(C(=O)N1CCN(c2nc(N)nc3ccc(-c4ccc(F)cc4)nc23)CC1)C(C)C` [Example 465, 2-amino-4-[4-(diisopropylcarbamoyl)piperazin-1-yl]-6-(4-fluorophenyl)-pyrido[3,2-d]pyrimidine], 5.52. As to `Nc1nc(N2CCN(C(=O)N3CCOCC3)CC2)c2nc(-c3ccc(F)cc3)ccc2n1` [Example 466, 2-amino-4-[4-(morpholinocarbonyl)piperazin-1-yl]-6-(4-fluorophenyl)-pyrido[3,2-d]pyrimidine], the pIC50 was 5.60. Still for that read-out and setting: the result for `Nc1nc(N2CCN(C(=O)COc3ccc4ccccc4c3)CC2)c2nc(-c3ccc(F)cc3)ccc2n1` [Example 383, 2-amino-4-[4-(2-naphthoxyacetyl)piperazin-1-yl]-6-(4-fluorophenyl)-pyrido[3,2-d]pyrimidine] reads 6.30; that for `CC(C)(C)OC(=O)N1CCN(c2nc(NC3CCCC3)nc3ccc(-c4ccc(F)cc4)nc23)CC1` [Example 568, 2-cyclopentylamino-6-(4-fluorophenyl)-4-(4-Boc-piperazino)-pyrido[3,2-d]pyrimidine], 5.19; that for `Cc1cccc(NC(=O)N2CCN(c3nc(N)nc4ccc(-c5ccccc5F)nc34)CC2)c1` [Example 547, 2-amino-4-[(3-methylphenylcarbamoyl)-piperazin-1-yl]-6-(2-fluoro-phenyl)-pyrido[3,2-d]pyrimidine], 7.22. Still for that read-out and setting: as for `Cc1cccc(NC(=O)N2CCN(c3nc(N)nc4ccc(-c5c(C)cccc5C)nc34)CC2)c1` [Example 550, 2-amino-4-[(3-methylphenylcarbamoyl)-piperazin-1-yl]-6-(2,6-dimethyl-phenyl)-pyrido[3,2-d]pyrimidine], the figure is 5.46; as for `N#CCOc1ccc(-c2ccc3nc(N)nc(N4CCN(C(=O)COc5ccc(Cl)cc5)CC4)c3n2)cc1` [Example 503, 2-amino-4-[N-(4-chlorophenoxyacetyl)-piperazin-1-yl]-6-(4-cyano-methoxyphenyl)-pyrido(3,2-d)pyrimidine], 7.70.

As for `CCc1ccc(-c2ccc3nc(N)nc(N4CCN(C(=O)COc5ccc(Cl)cc5)CC4)c3n2)cc1` [Example 508, 2-amino-4-[N-(4-chlorophenoxyacetyl)-piperazin-1-yl]-6-(4-ethylphenyl)-pyrido(3,2-d)pyrimidine], the pIC50 is 7.92. The same measure, in the same setting: as for `Nc1nc(N2CCN(C(=O)COc3ccc(Cl)cc3)CC2)c2nc(-c3ccsc3)ccc2n1` [Example 403, 2-amino-4-[4-(4-chlorophenoxyacetyl)piperazin-1-yl]-6-(thiophen-3-yl)pyrido-[3,2-d]pyrimidine], the figure is 7.40; as for `CNc1nc(N2CCN(C(=O)COc3ccc(Cl)cc3)CC2)c2nc(-c3ccc(F)cc3)ccc2n1` [Example 574, 2-methylamino-4-[N-(4-chlorophenoxyacetyl)-piperazin-1-yl]-6-(4-fluorophenyl)-pyrido[3,2-d]pyrimidine], 6.47; as for `Nc1nc(N2CCN(C(=O)COc3ccc(Cl)cc3)CC2)c2nc(-c3ccc(F)c(Cl)c3)ccc2n1` [Example 408, 2-amino-4-[4-(4-chlorophenoxyacetyl)piperazin-1-yl]-6-(3-chloro-4-fluorophenyl)-pyrido-[3,2-d]pyrimidine], 6.70. On the same count and under the same terms, as for `Nc1nc(N2CCN(C(=O)COc3ccc(Cl)cc3)CC2)c2nc(-c3ccc(F)c(F)c3)ccc2n1` [Example 404, 2-amino-4-[4-(4-chlorophenoxyacetyl)piperazin-1-yl]-6-(3,4-difluorophenyl)pyrido-[3,2-d]pyrimidine], the figure is 7.40. Still for that read-out and setting: the result for `CCOc1ccc(-c2ccc3nc(N)nc(N4CCN(C(=O)COc5ccc(Cl)cc5)CC4)c3n2)cc1Cl` [Example 493, 2-amino-4-[N-(4-chlorophenoxyacetyl)-piperazin-1-yl]-6-(3-chloro-4-ethoxyphenyl)-pyrido(3,2-d)pyrimidine] reads 7.24. Take `Cc1cccc(NC(=O)N2CCN(c3nc(CN(C)C)nc4ccc(-c5ccc(F)cc5)nc34)CC2)c1` [Example 537, 2-(N,N-dimethylamino)methyl-4-[N-(3-methylphenylcarbamoyl)piperazin-1-yl]-6-(4-fluorophenyl)-pyrido[3,2-d]pyrimidine]: the pIC50 was 5.48. In the case of `CC(=O)c1ccc(-c2ccc3nc(N)nc(N4CCN(C(=O)COc5ccc(Cl)cc5)CC4)c3n2)cc1` [Example 446, 2-amino-4-[4-(4-chlorophenoxyacetyl)piperazin-1-yl]-6-(4-acetylphenyl)pyrido-[3,2-d]pyrimidine], the pIC50 was 7.96. Same read-out and setting: as for `Nc1nc(N2CCN(C(=O)C(N)Cc3ccc(Cl)cc3)CC2)c2nc(-c3ccc(F)cc3)ccc2n1` (stereo in doubt) [Example 488, (S)-2-amino-4-{4-[3-(4-chlorophenyl)-2-aminopropionyl]piperazin-1-yl}-6-(4-fluorophenyl)-pyrido[3,2-d]pyrimidine], the figure is 5.37.
